# Experiments:
# [1] = system: MCF-7 breast cancer cells; experiment: Cell Titer 96 cell proliferation assay, 4-day drug exposure; type: cell-based
# Protocol: MCF-7 (ER+) and MDA-MB-231 (ER−) breast cancer cells were obtained from the American Type Culture Collection (Rockville, Md.). Cells were routinely cultured in 25 cm^2 culture flasks in Eagle's minimum essential medium (EMEM) with Hepes buffer (20 mM). This medium was supplemented with L-glutamine (2 mM), sodium hydrogen carbonate (10 mM), 1% non-essential amino acids and 5% (v/v) foetal calf serum (FCS). Before adding test compounds, cells were washed with phosphate-buffered saline (PBS) and treatments added in phenol-red free medium containing 2% stripped FCS and supplements. The effects of 2-MeOE1 or 2-MeOEMATE on the growth of MCF-7 cells was assessed using a Cell Titer 96 cell proliferation assay (Promega, Southampton, Hants, UK) according to the manufacturers' instructions. For this, cells (5000 per well) were cultured in medium containing phenol-red and 10% FCS and were exposed to a drug for 4 days before the assay was performed. For MDA-MB-231 cells, cell numbers were determined using a Coulter counter.
# steroid sulphatase = target: T1, steroid sulphatase (Homo sapiens, UniProt P08842); conditions: compared with EMATE (18, 19); cited from earlier work
# T1 sequence (P08842 22-583): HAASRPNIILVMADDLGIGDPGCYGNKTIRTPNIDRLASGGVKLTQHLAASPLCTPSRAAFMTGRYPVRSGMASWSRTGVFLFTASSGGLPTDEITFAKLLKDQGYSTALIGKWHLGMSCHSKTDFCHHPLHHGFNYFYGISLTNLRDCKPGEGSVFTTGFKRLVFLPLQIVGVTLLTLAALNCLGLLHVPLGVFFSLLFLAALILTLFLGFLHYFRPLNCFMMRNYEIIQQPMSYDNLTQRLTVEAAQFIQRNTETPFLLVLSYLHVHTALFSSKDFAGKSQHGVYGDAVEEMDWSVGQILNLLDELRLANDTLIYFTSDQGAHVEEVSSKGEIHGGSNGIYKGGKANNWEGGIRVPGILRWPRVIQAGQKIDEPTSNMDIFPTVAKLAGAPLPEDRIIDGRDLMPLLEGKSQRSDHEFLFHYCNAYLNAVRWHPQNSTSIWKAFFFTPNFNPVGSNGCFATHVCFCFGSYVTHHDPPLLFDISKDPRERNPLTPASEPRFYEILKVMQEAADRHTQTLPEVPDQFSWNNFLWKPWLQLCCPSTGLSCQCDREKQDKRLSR
# [2] = system: breast tumour-derived fibroblasts; experiment: Morphology and cell number (Coulter counter) of fibroblasts; type: cell-based; conditions: 24 h
# Protocol: For the culture of fibroblasts, resected breast tumour tissue was minced and incubated in EMEM for 18-24 h at 37° C. with collagenase (200 μg/ml). The dispersed cells were harvested by centrifugation and washed twice with medium to remove collagenase. Dispersed cells were seeded into culture flasks and grown to confluence before passaging on a weekly basis. For experimental purposes 12 well multi-well plates or 25 cm^2 flasks were seeded with fibroblasts and grown to 70-80% confluency. Cells were washed with PBS and exposed to drugs for 24 h before determining cell numbers using a Coulter counter.
# Photomicrographs of control and treated cells were taken under normal conditions of light and exposure using an Olympus SL35 Type 12 camera under an Olympus CK2 microscope (×100 magnification).
# [3] = Homo sapiens, MCF7, 96 h, read-out: inhibition of proliferation of MCF-7 cells
structure (smiles),measurement,setting,value
"COc1cc2c(cc1OS(N)(=O)=O)CCC1C2CC[C@]2(C)C(=O)CCC12 (stereo partly shown) [2-MeOEMATE, 2-methoxyoestrone-3-O-sulphamate]",inhibition of proliferation of MCF-7 cells,"[1]; 10 μM, 4 days",no further effect on cell proliferation
same,inhibition at 0.1 µM,[1]; [3],29%
same,inhibition at 1 µM,[1]; [3],52%
same,potency as a steroid sulphatase inhibitor,steroid sulphatase,equipotent with EMATE
same,effect on fibroblast morphology,[2]; 1 μM,little effect on cell morphology
same,effect on fibroblast morphology,[2]; 5 μM,rounding of a significant proportion of fibroblasts
same,effect on the number of fibroblasts,[2],did not reduce the number of fibroblasts

# Reference: US7078395B1, “Methods for treating or preventing cancer by preventing, inhibiting or arresting cell cycling” (priority 1999, dated 2006)
